ChEMBL document CHEMBL1201862, “PubChem BioAssay data set” (2004)
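Dose response: 5 concentrations. Exposure: 48 h. Format: 96-well plates. Endpoint: linear interpolation; highest concentration if not reached. The concentration for 50% growth inhibition is given as GI50.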 The source made the active and inactive calls. Rule as the data show it: active = GI50 up to about 1.1 µM and inactive = higher. Starred links: 1 amine or outer side, 2 acyl side, 3 side chain; linkers in the order of their positions; H or OH if unused. Non-standard residues stand in square brackets, D forms with d. Residues, ends and D or L forms follow the SMILES beside them. *: point of attachment. X47 = CCC(=O)CC1CC(C)CC(C(=O)[*:2])N1[*:1]; X46 = CCCCCCCCC(C)C(=O)*; Aib = CC(C)(N)C(=O)O; X48 = CC(CN(C)CCO)N*

Columns and labels:
Assay in all cases: growth of human tumour cells (NCI), 48 h
[1] = test system: COLO 205
[2] = test system: UACC-257
[3] = test system: SK-MEL-28
[4] = test system: OVCAR-3
[5] = test system: HCT-116
[6] = test system: SK-MEL-2
[7] = test system: EKVX
[8] = test system: MOLT-4
[9] = test system: HOP-62
[10] = test system: RPMI-8226
[11] = test system: RXF 393
[12] = test system: SF-268
[13] = test system: HCC 2998
[14] = test system: UO-31
[15] = test system: OVCAR-5
[16] = test system: SN12C
[17] = test system: HL-60
[18] = test system: SK-MEL-5
[19] = test system: A549
[20] = test system: M14

Row | Compound | GI50 [1] | GI50 [2] | GI50 [3] | GI50 [4] | GI50 [5] | GI50 [6] | GI50 [7] | GI50 [8] | GI50 [9] | GI50 [10] | GI50 [11] | GI50 [12] | GI50 [13] | GI50 [14] | GI50 [15] | GI50 [16] | GI50 [17] | GI50 [18] | GI50 [19] | GI50 [20]
1 | COc1ccc(/C=C/c2cc(O)cc(OC3OC(CO)C(O)C(O)C3O)c2)cc1O (stereo not given) | > 100 µM (inactive) | > 100 µM (inactive) | > 100 µM (inactive) | > 100 µM (inactive) | 68.7 µM (inactive) | > 100 µM (inactive) | > 100 µM (inactive) | > 100 µM (inactive) | 37 µM (inactive) | 78.7 µM (inactive) | > 100 µM (inactive) | 42.6 µM (inactive) | > 100 µM (inactive) | 19.2 µM (inactive) | 67.1 µM (inactive) | > 100 µM (inactive) | > 100 µM (inactive) | > 100 µM (inactive) | 69.2 µM (inactive) | > 100 µM (inactive)
2 | O=C1C(Cl)C(c2ccccc2Cl)N1n1cnc2ccccc2c1=O (stereo not given) | > 100 µM (inactive) | 37.2 µM (inactive) | > 100 µM (inactive) | > 100 µM (inactive) | 36.1 µM (inactive) | 24.7 µM (inactive) | 18.5 µM (inactive) | 68.5 µM (inactive) | 16.3 µM (inactive) | 35 µM (inactive) | 17.5 µM (inactive) | 54.5 µM (inactive) | 39.6 µM (inactive) | 7.52 µM (inactive) | > 100 µM (inactive) | > 100 µM (inactive) | 8.69 µM (inactive) | > 100 µM (inactive) | > 100 µM (inactive) | 94 µM (inactive)
3 | O=C1/C(=C\c2cccc(Oc3ccccc3)c2)SC(c2ccccc2)N1c1cc(Cl)ccc1Cl (stereo not given) | 53.5 µM (inactive) | 32.7 µM (inactive) | 37.1 µM (inactive) | 24.8 µM (inactive) | 17.2 µM (inactive) | 43.5 µM (inactive) | 38.1 µM (inactive) | 10.4 µM (inactive) | 56.5 µM (inactive) | 37 µM (inactive) | 22.8 µM (inactive) | 22.2 µM (inactive) | 37.2 µM (inactive) | 37.2 µM (inactive) | 59 µM (inactive) | 18.7 µM (inactive) | 15.1 µM (inactive) | 27 µM (inactive) | 51.5 µM (inactive) | 30.1 µM (inactive)
4 | CC(C)(C)O/N=C/c1cc(NC(=S)c2ccsc2)ccc1Cl | 14.9 µM (inactive) | 12.6 µM (inactive) | 16.7 µM (inactive) | 14.9 µM (inactive) | 11.4 µM (inactive) | 16 µM (inactive) | 11.9 µM (inactive) | 5.71 µM (inactive) | 16 µM (inactive) | 2.75 µM (inactive) | 14.1 µM (inactive) | 16 µM (inactive) | 14.5 µM (inactive) | 12.2 µM (inactive) | 17.7 µM (inactive) | 17.1 µM (inactive) | 17.2 µM (inactive) | 3.99 µM (inactive) | 17.5 µM (inactive) | 16.7 µM (inactive)
5 | CSC1(SC2=NCCN2)SC2(NCCN2)S1 | 21.3 µM (inactive) | 20.6 µM (inactive) | 20.2 µM (inactive) | 15.8 µM (inactive) | 17 µM (inactive) | 19.2 µM (inactive) | 20.3 µM (inactive) | 10.8 µM (inactive) | 17.5 µM (inactive) | 2.77 µM (inactive) | 7.53 µM (inactive) | 18.2 µM (inactive) | 15.5 µM (inactive) | 17.3 µM (inactive) | 19.5 µM (inactive) | 20.7 µM (inactive) | 21 µM (inactive) | 18.9 µM (inactive) | 20.3 µM (inactive) | 21.3 µM (inactive)
6 | CC(=O)OC1C(O)COC(O[C@H]2CC[C@]34C[C@]35CC[C@]3(C)C([C@@]6(C)CC[C@@H](C(C)(C)O)O6)[C@@H](O)C[C@@]3(C)C5C[C@H](OC3OCC(O)C(O)C3O)[C@H]4C2(C)C)C1OC1OCC(O)C(O)C1O (stereo not given in full) | > 100 µM (inactive) | > 100 µM (inactive) | > 100 µM (inactive) | > 100 µM (inactive) | > 100 µM (inactive) | > 100 µM (inactive) | > 100 µM (inactive) | > 100 µM (inactive) | > 100 µM (inactive) | > 100 µM (inactive) | > 86.3 µM (inactive) | > 100 µM (inactive) | > 100 µM (inactive) | > 100 µM (inactive) | > 100 µM (inactive) | > 100 µM (inactive) | 11.6 µM (inactive) | > 100 µM (inactive) | > 100 µM (inactive) | > 100 µM (inactive)
7 | COc1cc(CN[C@H]2CCc3cc(OC)c(OC)c(OC)c3-c3ccc(SC)c(=O)cc32)cc(OC)c1 | 0.0325 µM (active) | 0.0566 µM (active) | 0.0386 µM (active) | 0.0334 µM (active) | 0.0399 µM (active) | 0.0463 µM (active) | 0.0828 µM (active) | 0.452 µM (active) | 0.0562 µM (active) | 0.0324 µM (active) | 0.0266 µM (active) | 0.043 µM (active) | 0.0319 µM (active) | 0.0938 µM (active) | 0.0499 µM (active) | 0.0367 µM (active) | 0.0394 µM (active) | 0.0336 µM (active) | 0.0376 µM (active) | 0.0322 µM (active)
8 | Oc1ccc(/C=N/c2ccccc2O)cc1 | 30.2 µM (inactive) | 22.3 µM (inactive) | > 100 µM (inactive) | 40 µM (inactive) | 50.1 µM (inactive) | 21.9 µM (inactive) | 48 µM (inactive) | 51.2 µM (inactive) | 67 µM (inactive) | 22.5 µM (inactive) | > 100 µM (inactive) | 96.6 µM (inactive) | 45.3 µM (inactive) | 25.9 µM (inactive) | > 100 µM (inactive) | > 100 µM (inactive) | 12.7 µM (inactive) | 20.2 µM (inactive) | 54.2 µM (inactive) | 35.5 µM (inactive)
9 | CCCCCCCCC(C)C(=O)N1CCCC1C(=O)N1C(CC(=O)CC)CC(C)CC1C(=O)NC(C)C(=O)NC(C)(C)C(=O)NC(C)(C)C(=O)NC(C(=O)NC(C)C(=O)NC(C)(C)C(=O)NC(C)(C)C(=O)NC(C)CN(C)CCO)C(C)CC (stereo not given) (X46-P[X47]A[Aib][Aib]IA[Aib][Aib]-X48; configuration not given here) | 0.0135 µM (active) | < 0.01 µM (active) | 2.89 µM (inactive) | < 0.01 µM (active) | 0.0299 µM (active) | 0.369 µM (active) | < 0.01 µM (active) | 0.08 µM (active) | 0.116 µM (active) | < 0.0181 µM (active) | 1.85 µM (inactive) | 0.581 µM (active) | 0.0385 µM (active) | 0.124 µM (active) | 0.889 µM (active) | 0.115 µM (active) | < 0.0106 µM (active) | < 0.0135 µM (active) | < 0.01 µM (active) | 0.593 µM (active)
10 | CC(=O)O[C@H]1CCC2[C@@H]3CCC4=C(O)C(=O)C(C#N)C[C@]4(C)C3CC[C@@]21C (stereo not given in full) | 28.4 µM (inactive) | 56.5 µM (inactive) | 46.7 µM (inactive) | 38.6 µM (inactive) | 29.5 µM (inactive) | 35 µM (inactive) | 41.7 µM (inactive) | 30.5 µM (inactive) | 65.5 µM (inactive) | 12.4 µM (inactive) | 24.9 µM (inactive) | 24.4 µM (inactive) | 29 µM (inactive) | 13.7 µM (inactive) | 75.9 µM (inactive) | 33.5 µM (inactive) | 20 µM (inactive) | 26.1 µM (inactive) | 36.7 µM (inactive) | 34 µM (inactive)
